# Test results taken from ChEMBL document CHEMBL1150872, “Four new bioactive lobane diterpenes of the soft coral Lobophytum pauciflorum from Mindoro, Philippines” (J Nat Prod, 1998).
# The source made the active and inactive calls. The rule behind the calls is not given here.
# What was measured:
# [1] = test system: Cladosporium cucumerinum; experiment: Antifungal activity against Cladosporium cucumerinum at 0.8 umol after 2 days; assay type: functional
# [2] = test system: Cladosporium cucumerinum; experiment: Antifungal activity against Cladosporium cucumerinum at 0.4 umol after 2 days; assay type: functional
# [3] = test system: Cladosporium cucumerinum; experiment: Antifungal activity against Cladosporium cucumerinum at 0.2 umol after 2 days; assay type: functional
# [4] = test system: Cladosporium cucumerinum; experiment: Antifungal activity against Cladosporium cucumerinum at 0.1 umol after 2 days; assay type: functional
# [5] = Toxicity in Artemia salina after 48 hrs; assay type: organism-based; settings: in vivo
# [6] = test system: Bacillus subtilis; experiment: Antibacterial activity against Bacillus subtilis 168 after 24 hrs by agar diffusion assay; assay type: functional, subsp. subtilis str. 168
# [7] = test system: Saccharomyces cerevisiae; experiment: Antifungal activity against Saccharomyces cerevisiae after 2 days; assay type: functional
# [8] = test system: Staphylococcus aureus; experiment: Antibacterial activity against Staphylococcus aureus […] after 24 hrs by agar diffusion assay; assay type: functional, organism-based
# [9] = test system: Escherichia coli; experiment: Antibacterial activity against Escherichia coli ATCC 25922 after 24 hrs by agar diffusion assay; assay type: functional, organism-based
SMILES,inhibition zone (IZ) [1] [mm],inhibition zone (IZ) [2] [mm],inhibition zone (IZ) [3] [mm],inhibition zone (IZ) [4] [mm],LC50 at 48 h [5] [µg/mL],inhibition zone (IZ) [6] [mm],inhibition zone (IZ) [7] [mm],Activity [8],Activity [9]
C=C[C@@]1(C)CC[C@H](/C(=C/C[C@@H](O)C(C)(C)O)COC(C)=O)C[C@@H]1C(=C)C,30,20,10,5,59,,,,
C=C[C@@]1(C)CC[C@H](C2=CCC(O)C(C)(C)OC2)C[C@@H]1C(=C)C (stereo partly drawn),17,14,10,5,,,,,
C=C[C@@]1(C)CC[C@H](/C(C)=C/C[C@@H](OC(C)=O)C(C)(C)O)C[C@@H]1C(=C)C,13,9,5,2,19.1,,,,
C=C[C@@]1(C)CC[C@H](/C(=C/C[C@@H](OC(C)=O)C(C)(C)O)COC(C)=O)C[C@@H]1C(=C)C,15,13,10,5,60.4,,,,
C=C[C@@]1(C)CC[C@H](/C(C)=C/C[C@H]2OC2(C)C)C[C@@H]1C(=C)C,5,0,0,0,0.64,,,,
C=C[C@@]1(C)CC[C@H](C2=CC[C@H](C(C)(C)OC(C)=O)OC2)C[C@@H]1C(=C)C,,10,8,6,34,,,,
COC1=C(C)C(=O)c2cc(=O)n(C)c(C)c2C1=O [MIMOSAMYCIN],,18,15,,,,,,
C=C[C@@]1(C)CC[C@H](/C(C)=C/C=C/C(C)(C)O)C[C@@H]1C(=C)C [FUSCOL],2,0,0,0,4.18,,,,
C=C[C@@]1(C)CC[C@H](/C(C)=C/C[C@@H](O)C(C)(C)O)C[C@@H]1C(=C)C,17,14,9,6,10.5,,,,
C=C[C@@]1(C)CC[C@H](C2=CC[C@H](C(C)(C)O)OC2=O)C[C@@H]1C(=C)C [LOBATRIENOLIDE],15,13,9,6,,,,,
C=C[C@@]1(C)CC[C@H](C2=CC[C@H](C(C)(C)O)OC2)C[C@@H]1C(=C)C [LOBATRIENE],15,14,10,5,19.8,8,7,inactive,inactive
